This is an account of results in US10183013B2, “Cyclic sulfonamide containing derivatives as inhibitors of hedgehog signaling pathway” (NantBioScience, Inc., priority 2012, dated 2019).

In general, EC50 refers to the concentration needed to bring the measured effect to its halfway point.

Read-outs that look alike come from different tables or passages of the source. Some results are limits rather than exact numbers.

For assay [1], the system named is Hedgehog signalling (Gli-bla NIH3T3 cells, mShh stimulated). As to the kind of experiment: Hedgehog signalling inhibition assay (Gli-Bla reporter assay in NIH 3T3 cells). The assay is classed as cell-based. How it is done:
Hedgehog signalling inhibition assays. The following table 2 represents the average EC50 values for particular compounds of the inventions. Gli-bla NIH3T3 cells (7500 cells/well) were plated the day prior to the assay in a 384-well and 96-format in complete growth medium. […] Cells were stimulated with mShh for 24 hours and then loaded with LiveBLAzer™-FRET B/G Substrate for 3 hours. Emission values at 460 nm and 530 nm were obtained using a standard fluorescence plate reader and the 460/530 Ratios plotted for each treatment (n=4 for each data point).
J. Cancer, 2011, 30(7):472-81).

The target in another assay is T1, SMO (Homo sapiens, UniProt Q99835).
T1 construct: host or cells: HEK293H cells
T1 sequence (Q99835 28-787): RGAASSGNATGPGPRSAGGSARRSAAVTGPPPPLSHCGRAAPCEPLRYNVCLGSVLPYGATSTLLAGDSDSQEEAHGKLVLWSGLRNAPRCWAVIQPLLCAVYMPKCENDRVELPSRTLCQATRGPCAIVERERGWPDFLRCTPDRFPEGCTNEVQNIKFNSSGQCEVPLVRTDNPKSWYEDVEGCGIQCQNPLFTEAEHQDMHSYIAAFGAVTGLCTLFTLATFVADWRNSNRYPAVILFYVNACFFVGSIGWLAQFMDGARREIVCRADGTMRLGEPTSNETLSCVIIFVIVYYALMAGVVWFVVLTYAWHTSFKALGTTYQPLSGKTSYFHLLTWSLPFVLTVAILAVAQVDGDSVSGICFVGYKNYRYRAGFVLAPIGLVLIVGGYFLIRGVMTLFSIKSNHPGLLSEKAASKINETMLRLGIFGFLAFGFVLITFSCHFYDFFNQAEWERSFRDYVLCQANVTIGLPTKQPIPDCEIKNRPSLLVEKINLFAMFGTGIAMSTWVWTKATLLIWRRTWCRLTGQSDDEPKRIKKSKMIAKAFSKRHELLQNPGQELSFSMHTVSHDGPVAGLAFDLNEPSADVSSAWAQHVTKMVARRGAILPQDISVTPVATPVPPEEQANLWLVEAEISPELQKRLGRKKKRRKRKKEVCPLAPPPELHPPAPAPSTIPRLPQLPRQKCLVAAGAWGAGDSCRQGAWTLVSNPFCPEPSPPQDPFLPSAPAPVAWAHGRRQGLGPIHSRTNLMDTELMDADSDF
As to the kind of experiment: SMO BODIPY-CYC binding assay using HEK293H cells.

Setting [2] is: Mus musculus, NIH3T3, 24 h, read-out: EC50.

With `Cc1nn(-c2ccccc2)c(C)c1/C=N/N1CCN(Cc2ccccc2)CC1` [Sant-1, reference compound], the EC50 turned out to be 5 nM in assay [1] (NIH 3T3 cells, read-out: Gli-Bla reporter assay (EC50)) and 0.592 nM on SMO.
`O=C(Nc1ccc(Cl)c(NC(=O)c2cccc(Cl)c2)c1)c1ccc(N2CCCS2(=O)=O)c(F)c1` [Example 121]: in assay [1] (setting [2]), the EC50 was less than 10 nM.
For `O=C(Nc1ccc(Cl)c(-c2ccc3cnccc3n2)c1)c1ccc(N2CCCCS2(=O)=O)cc1Cl` [Example 101], the EC50 in assay [1] (setting [2]) was less than 10 nM.
For the compound `O=C(Nc1cc(NC(=O)c2ccc(N3CCOCS3(=O)=O)cc2Cl)ccc1Cl)c1cccc(F)c1` [Example 125, 2-chloro-N-(4-chloro-3-(3-fluorobenzamido)phenyl)-4-(3,3-dioxido-1,3,4-oxathiazinan-4-yl)benzamide], the EC50 in assay [1] (setting [2]) is less than 10 nM.
Still for that read-out and setting: then `O=C(Nc1ccc(Cl)c(-c2nccc3ncccc23)c1)c1ccc(N2CCCS2(=O)=O)cc1Cl` [Example 112], with less than 10 nM; and `O=C(Nc1ccc(Cl)c(-c2ccc3cnccc3n2)c1)c1ccc(N2CCCS2(=O)=O)cc1` [Example 90], with 12000 nM; and `O=C(Nc1cc(NC(=O)c2ccc(N3CCOCS3(=O)=O)cc2Cl)ccc1Cl)c1cccnc1` [Example 136], with less than 10 nM.
The same measure, in the same setting: then `O=C(Nc1ccc(Oc2cccc(Cl)c2)cc1)c1ccc(N2CCOCS2(=O)=O)cc1Cl` [Example 142], with less than 10 nM; and `O=C(Nc1ccc(Cl)c(Oc2cccc(Cl)c2)c1)c1ccc(N2CCCS2(=O)=O)cc1` [Example 138], with less than 10 nM.
